Assay results taken from patent publication US20190127456A1, “METHODS OF TREATING IDIOPATHIC PULMONARY FIBROSIS” (FibroGen, Inc., priority 2017, published 2019).
Like-named read-outs stand apart in the source and are kept apart here.

How the values were obtained:
[1] = test system: fibrosis genes in irradiated lung; test: Microarray analysis of mRNA transcripts in irradiated lung; type: in vivo, mouse; settings: for % Normalization of gene expression, Igfbp5 / % Normalization of gene expression, Abca3 / % Normalization of gene expression, Gdf2 / % Normalization of gene expression, Cx3cl1 / % Normalization of gene expression, Retnla / % Normalization of gene expression, Nt5e / % Normalization of gene expression, Plat / % Normalization of gene expression, Ccr2 / % Normalization of gene expression, Igfbp7 / % Normalization of gene expression, Cdkn2a / % Normalization of gene expression, Apln / % Normalization of gene expression, Wisp1: irradiated mouse lung, 24 weeks after RT, 8 weeks treatment; for % Normalization of gene expression, Igfbp5: RT fold change 0.3; for % Normalization of gene expression, Abca3 / % Normalization of gene expression, Gdf2: RT fold change 0.4; for % Normalization of gene expression, Cx3cl1: RT fold change 0.5; for % Normalization of gene expression, Retnla: RT fold change 2.0; for % Normalization of gene expression, Nt5e: RT fold change 2.1; for % Normalization of gene expression, Plat: RT fold change 2.2; for % Normalization of gene expression, Ccr2: RT fold change 2.4; for % Normalization of gene expression, Igfbp7: RT fold change 2.6; for % Normalization of gene expression, Cdkn2a: RT fold change 2.7; for % Normalization of gene expression, Apln: RT fold change 5.3; for expression of the Wisp 1 and Nt5e genes: monotherapy compared to RT treatment alone
Procedure: (§1) C57B1/6 mice were irradiated with 14.5 Gy photons; full thorax, single dose. Treatment with therapeutic agent(s) (pamrevlumab, pirfenidone, and/or nintedanib) was initiated 16 weeks post-irradiation and continued for 8 weeks. Pamrevlumab (FG) was given IP, BIW, at 40 mg/kg; pirfenidone (PF) was given PO in chow, QD, at 300 mg/kg; nintedanib (ND) was given PO in chow, QD, at 100 mg/kg. Treatment with each agent alone, with combinations of two, and with a triple combination were carried out. Controls included non-irradiated mice, mice that were irradiated and not treated, and mice that were irradiated and given human IgG. Endpoint measurements were taken at 24 weeks for HRCT (lung structure), blood gas analysis (lung function), histology and gene expression analysis.
Microarray analysis of mRNA transcripts of numerous genes at 24 weeks after RT were carried out by standard techniques to compare the expression profiles of irradiated and treated animals to irradiated animals that were not further treated. The results of the later group, RT (control), were used to normalize the expression data from the other groups. Briefly, RNA from 4-7 animals per condition (RT (control), RT+hIgG, RT+FG, RT+ND, RT+PF, RT+FG+ND, RT+FG+PF, RT+ND+PF, RT+FG+ND+PF). Affymetrix 430 2.0 data was used. RT induced changes (≥1.5×, p<0.05) were filtered for treatment dependent correction (>50% correction, p<0.05). 80 RT-induced and 68 RT-suppressed transcripts were normalized at least 50% by one or more treatments. The resulting list was dominated by pamrevlumab-dependent normalization. Functional analysis indicated pamrevlumab treatment preferentially normalized RT genes known to be regulated by TGFβ and TNF.

[2] = combined clinical studies of pirfenidone, cited from earlier work
[3] = test system: IPF; settings: Week 52, Phase 3 clinical study; cited from earlier work
[4] = test system: radiation-induced lung fibrosis; test: Mouse radiation-induced lung fibrosis model: lung volume by HRCT; type: in vivo; settings: 14.5 Gy irradiated mice, treated 8 weeks from week 16, measured at 24 weeks; FIG. 4
Procedure: as §1, with “The objective of this study was to compare the activity of pamrevlumab monotherapy to either pirfenidone or nintedanib alone, and to evaluate the potential for enhanced activity of the combined agents. […] In this study, mice received thoracic irradiation (RT), followed by the therapeutic administration of the agents at 16 weeks post-irradiation when lung remodeling was evident by HRCT. After 8 weeks of drug treatment, lung density and volume were assessed by HRCT, lung function was assessed by blood gas analysis, and mice were sacrificed for histologic and gene expression analysis. C57B1/6” for “C57B1/6”, “analysis. […]” for “analysis.”

[5] = test system: radiation-induced lung fibrosis; test: Mouse radiation-induced lung fibrosis model: lung function by blood gas analysis; type: in vivo; settings: blood gas analysis at 24 weeks, compared to RT with no treatment; data not shown
Procedure: The objective of this study was to compare the activity of pamrevlumab monotherapy to either pirfenidone or nintedanib alone, and to evaluate the potential for enhanced activity of the combined agents. […] In this study, mice received thoracic irradiation (RT), followed by the therapeutic administration of the agents at 16 weeks post-irradiation when lung remodeling was evident by HRCT. After 8 weeks of drug treatment, lung density and volume were assessed by HRCT, lung function was assessed by blood gas analysis, and mice were sacrificed for histologic and gene expression analysis. C57B1/6 mice were irradiated with 14.5 Gy photons; full thorax, single dose. Treatment with therapeutic agent(s) (pamrevlumab, pirfenidone, and/or nintedanib) was initiated 16 weeks post-irradiation and continued for 8 weeks. Pamrevlumab (FG) was given IP, BIW, at 40 mg/kg; pirfenidone (PF) was given PO in chow, QD, at 300 mg/kg; nintedanib (ND) was given PO in chow, QD, at 100 mg/kg. Treatment with each agent alone, with combinations of two, and with a triple combination were carried out. Controls included non-irradiated mice, mice that were irradiated and not treated, and mice that were irradiated and given human IgG. […] The effect of the treatments on lung function was assessed by blood gas analysis (data not shown).

[6] = cited from earlier work
[7] = IPF patients; cited from earlier work

SMILES | % Normalization of gene expression, Igfbp5 [1] [%] | % Normalization of gene expression, Abca3 [1] [%] | % Normalization of gene expression, Gdf2 [1] [%] | % Normalization of gene expression, Cx3cl1 [1] [%] | % Normalization of gene expression, Retnla [1] [%] | % Normalization of gene expression, Nt5e [1] [%] | % Normalization of gene expression, Plat [1] [%] | % Normalization of gene expression, Ccr2 [1] [%] | % Normalization of gene expression, Igfbp7 [1] [%] | % Normalization of gene expression, Cdkn2a [1] [%] | % Normalization of gene expression, Apln [1] [%] | % Normalization of gene expression, Wisp1 ([1]; RT fold change 6.9) [%] | % Normalization of gene expression, Wisp1 ([1]; RT fold change 11.9) [%] | expression of the Wisp 1 and Nt5e genes [1] | also measured
Cc1ccc(=O)n(-c2ccccc2)c1 [pirfenidone, 5-methyl-1-phenyl-2-(1H)-pyridone] | 27 | −20 | 10 | −8 | −7 | −58 | 0 | −20 | −6 | −37 | 41 | −21 | −78 | further induction of expression | patients experiencing abdominal pain [2]: 24%; patients experiencing vomiting [2]: 13%; patients with skin rash [2]: 30%; patients experiencing nausea ([2]; placebo 16%): 36%; patients experiencing diarrhea ([2]; placebo 20%): 26%; mean UCSD-SOBQ score over placebo treated patients [3]: no statistical significance
COC(=O)c1ccc2c(c1)NC(=O)/C2=C(\Nc1ccc(N(C)C(=O)CN2CCN(C)CC2)cc1)c1ccccc1 [nintedanib] | 54 | −35 | 33 | −21 | −9 | −22 | −55 | 10 | 10 | 9 | 6 | −7 | −18 | further induction of expression | radiation-induced lung volume decrease [4]: not statistically different; O2 saturation [5]: normalized O2 saturation; patients with arterial thromboembolic events ([6]; a clinical trial of nintedanib): 2.5%; patients experiencing abdominal pain ([6]; clinical trials of nintedanib): 15%; patients experiencing vomiting ([6]; clinical trials of nintedanib): 12%; patients experiencing nausea ([6]; clinical trials of nintedanib, placebo 7%): 24%; patients experiencing diarrhea ([6]; clinical trials of nintedanib, placebo 18%): 62%; plasma half-life [7]: 9.5 h
